Read-outs that look alike come from different tables or passages of the source.
How the values were obtained:
Format in all cases: in vivo
[1] = system: duck salad (Heteranthera limosa); test: Test B flooded paddy test; settings: Heteranthera limosa, Flood, 1000 g ai/ha; scale 0 to 100; read-out: Plant response rating, Ducksalad
Method in brief: (§1)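 Plants were grown to the 2-leaf stage before treatment, then kept in a greenhouse for 13 to 15 days. Injury was rated visually against untreated controls on a 0 to 100 scale, where 0 is no effect and 100 is complete control.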

rice (Oryza sativa) = test: Test B flooded paddy test; settings: Oryza sativa, Flood, 1000 g ai/ha; scale 0 to 100; read-out: Plant response rating, Rice
Method in brief: as §1

[2] = system: barnyardgrass (Echinochloa crus-galli); test: Test B flooded paddy test; settings: Echinochloa crus-galli, Flood, 1000 g ai/ha; scale 0 (no effect) to 100 (complete control); read-out: Plant response rating, Barnyardgrass
Method in brief: as §1

[3] = system: umbrella sedge (Cyperus difformis); test: Test B flooded paddy test; settings: Cyperus difformis, Flood, 1000 g ai/ha; scale 0 to 100; read-out: Plant response rating, Sedge, Umbrella
Method in brief: as §1

corn (Zea mays) = test: Test B pre/postemergence; settings: Zea mays
Method in brief: (§2)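 Visual injury scored 0 (no effect) to 100 (complete control) versus untreated controls after 13 to 15 days in greenhouse. Treatments were pre- or postemergence sprays of surfactant-containing solvent formulations; postemergence plants at 1- to 4-leaf stage, 2 to 18 cm.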

[4] = system: wheat (Triticum aestivum); test: Test B pre/postemergence; settings: Triticum aestivum; for plant injury at 125 g/ha: 125 g ai/ha; for plant injury at 500 g/ha: 500 g ai/ha
Method in brief: as §2

[5] = system: Surinam grass (Brachiaria decumbens); test: Test B pre/postemergence; settings: Urochloa decumbens; for pest or weed control at 125 g/ha: 125 g ai/ha; for pest or weed control at 500 g/ha: 500 g ai/ha
Method in brief: as §2

[6] = system: cocklebur (Xanthium strumarium); test: Test B pre/postemergence; settings: Xanthium strumarium; for pest or weed control at 125 g/ha: 125 g ai/ha; for pest or weed control at 500 g/ha: 500 g ai/ha
Method in brief: as §2

[7] = system: barnyardgrass (Echinochloa crus-galli); test: Test B pre/postemergence; settings: Echinochloa crus-galli; for pest or weed control at 125 g/ha: 125 g ai/ha; for pest or weed control at 500 g/ha: 500 g ai/ha
Method in brief: as §2

[8] = system: pigweed (Amaranthus retroflexus); test: Test B pre/postemergence; settings: Amaranthus retroflexus; for pest or weed control at 125 g/ha: 125 g ai/ha; for pest or weed control at 500 g/ha: 500 g ai/ha
Method in brief: as §2

[9] = system: crabgrass (Digitaria sanguinalis); test: Test B pre/postemergence; settings: Digitaria sanguinalis; for pest or weed control at 125 g/ha: 125 g ai/ha; for pest or weed control at 500 g/ha: 500 g ai/ha
Method in brief: as §2

[10] = system: lambsquarters (Chenopodium album); test: Test B pre/postemergence; settings: Chenopodium album; for pest or weed control at 125 g/ha: 125 g ai/ha; for pest or weed control at 500 g/ha: 500 g ai/ha
Method in brief: as §2

[11] = system: velvetleaf (Abutilon theophrasti); test: Test B pre/postemergence; settings: Abutilon theophrasti; for pest or weed control at 125 g/ha: 125 g ai/ha; for pest or weed control at 500 g/ha: 500 g ai/ha
Method in brief: as §2

[12] = system: giant foxtail (Setaria faberii); test: Test B pre/postemergence; settings: Setaria faberi; for pest or weed control at 125 g/ha: 125 g ai/ha; for pest or weed control at 500 g/ha: 500 g ai/ha
Method in brief: as §2

[13] = system: morningglory (Ipomoea coccinea); test: Test B pre/postemergence; settings: Ipomoea; for pest or weed control at 125 g/ha: 125 g ai/ha; for pest or weed control at 500 g/ha: 500 g ai/ha
Method in brief: as §2

wild oat (Avena fatua) = test: Test B postemergence; settings: Avena fatua, post-emergence
Method in brief: as §2

[14] = system: blackgrass (Alopecurus myosuroides); test: Test B postemergence; settings: Alopecurus myosuroides, post-emergence
Method in brief: as §2

Nc1nc(C2CC2)nc(C=O)c1F [Compound 24]
30%: plant injury at 125 g/ha ([4]; pre-emergence, Preemergence, scale 0 to 100 (0 no effect, 100 complete control), read-out: Plant response rating, Wheat) | pest or weed control at 500 g/ha ([12]; post-emergence, Postemergence, scale 0 to 100, read-out: Plant response rating, Foxtail, Giant)
0%: pest or weed control at 1000 g/ha [1] | pest or weed control at 1000 g/ha [2] | plant injury at 125 g/ha (corn (Zea mays); post-emergence, Postemergence, 125 g ai/ha, scale 0 to 100 (0 no effect, 100 complete control), read-out: Corn plant response rating) | plant injury at 500 g/ha (corn (Zea mays); pre-emergence, Preemergence, 500 g ai/ha, scale 0 to 100 (0 no effect, 100 complete control), read-out: Corn plant response rating) | plant injury at 125 g/ha ([4]; post-emergence, Postemergence, scale 0 to 100 (0 no effect, 100 complete control), read-out: Wheat plant response rating) | plant injury at 500 g/ha ([4]; post-emergence, Postemergence, scale 0 to 100, read-out: Plant response rating, Wheat) | pest or weed control at 125 g/ha ([5]; post-emergence, Postemergence, scale 0 to 100 (0 no effect, 100 complete control), read-out: Surinam Grass plant response rating) | pest or weed control at 125 g/ha ([7]; post-emergence, Postemergence, scale 0 to 100 (0 no effect, 100 complete control), read-out: Barnyardgrass plant response rating) | pest or weed control at 125 g/ha ([7]; pre-emergence, Preemergence, scale 0 to 100 (0 no effect, 100 complete control), read-out: Plant response rating, Barnyardgrass) | pest or weed control at 125 g/ha (wild oat (Avena fatua); 125 g ai/ha, scale 0 to 100 (0 no effect, 100 complete control), read-out: Oat, Wild plant response rating) | pest or weed control at 500 g/ha (wild oat (Avena fatua); 500 g ai/ha, scale 0 to 100, read-out: Plant response rating, Oat, Wild) | pest or weed control at 125 g/ha ([14]; 125 g ai/ha, scale 0 to 100 (0 no effect, 100 complete control), read-out: Blackgrass plant response rating)
50%: pest or weed control at 500 g/ha ([5]; pre-emergence, Preemergence, scale 0 to 100 (0 no effect, 100 complete control), read-out: Surinam Grass plant response rating) | pest or weed control at 125 g/ha ([6]; post-emergence, Postemergence, scale 0 to 100 (0 no effect, 100 complete control), read-out: Cocklebur plant response rating) | pest or weed control at 500 g/ha ([11]; post-emergence, Postemergence, scale 0 to 100, read-out: Plant response rating, Velvetleaf) | pest or weed control at 125 g/ha ([11]; pre-emergence, Preemergence, scale 0 to 100 (0 no effect, 100 complete control), read-out: Plant response rating, Velvetleaf) | pest or weed control at 125 g/ha ([13]; pre-emergence, Preemergence, scale 0 to 100 (0 no effect, 100 complete control), read-out: Plant response rating, Morningglory)
40%: pest or weed control at 500 g/ha ([9]; post-emergence, Postemergence, scale 0 to 100, read-out: Plant response rating, Crabgrass) | pest or weed control at 125 g/ha ([11]; post-emergence, Postemergence, scale 0 to 100 (0 no effect, 100 complete control), read-out: Velvetleaf plant response rating)
80%: pest or weed control at 125 g/ha ([6]; pre-emergence, Preemergence, scale 0 to 100 (0 no effect, 100 complete control), read-out: Plant response rating, Cocklebur) | pest or weed control at 500 g/ha ([8]; post-emergence, Postemergence, scale 0 to 100, read-out: Plant response rating, Pigweed) | pest or weed control at 125 g/ha ([8]; pre-emergence, Preemergence, scale 0 to 100 (0 no effect, 100 complete control), read-out: Plant response rating, Pigweed) | pest or weed control at 500 g/ha ([9]; pre-emergence, Preemergence, scale 0 to 100 (0 no effect, 100 complete control), read-out: Crabgrass plant response rating) | pest or weed control at 500 g/ha ([10]; post-emergence, Postemergence, scale 0 to 100, read-out: Plant response rating, Lambsquarters) | pest or weed control at 500 g/ha ([11]; pre-emergence, Preemergence, scale 0 to 100 (0 no effect, 100 complete control), read-out: Velvetleaf plant response rating)
20%: pest or weed control at 1000 g/ha [3] | pest or weed control at 500 g/ha ([7]; pre-emergence, Preemergence, scale 0 to 100 (0 no effect, 100 complete control), read-out: Barnyardgrass plant response rating) | pest or weed control at 125 g/ha ([9]; post-emergence, Postemergence, scale 0 to 100 (0 no effect, 100 complete control), read-out: Crabgrass plant response rating) | pest or weed control at 125 g/ha ([12]; post-emergence, Postemergence, scale 0 to 100 (0 no effect, 100 complete control), read-out: Foxtail, Giant plant response rating)
90%: pest or weed control at 500 g/ha ([6]; pre-emergence, Preemergence, scale 0 to 100 (0 no effect, 100 complete control), read-out: Cocklebur plant response rating) | pest or weed control at 500 g/ha ([8]; pre-emergence, Preemergence, scale 0 to 100 (0 no effect, 100 complete control), read-out: Pigweed plant response rating) | pest or weed control at 500 g/ha ([10]; pre-emergence, Preemergence, scale 0 to 100 (0 no effect, 100 complete control), read-out: Lambsquarters plant response rating) | pest or weed control at 500 g/ha ([13]; post-emergence, Postemergence, scale 0 to 100, read-out: Plant response rating, Morningglory) | pest or weed control at 500 g/ha ([13]; pre-emergence, Preemergence, scale 0 to 100 (0 no effect, 100 complete control), read-out: Morningglory plant response rating)
60%: pest or weed control at 125 g/ha ([9]; pre-emergence, Preemergence, scale 0 to 100 (0 no effect, 100 complete control), read-out: Plant response rating, Crabgrass) | pest or weed control at 500 g/ha ([12]; pre-emergence, Preemergence, scale 0 to 100 (0 no effect, 100 complete control), read-out: Foxtail, Giant plant response rating) | pest or weed control at 125 g/ha ([13]; post-emergence, Postemergence, scale 0 to 100 (0 no effect, 100 complete control), read-out: Morningglory plant response rating)
10%: plant injury at 1000 g/ha (rice (Oryza sativa)) | Corn plant response rating (crop injury, 0 = no effect, 100 = complete kill) at 500 g/ha (corn (Zea mays); post-emergence, Postemergence, 500 g ai/ha, scale 0 to 100) | pest or weed control at 500 g/ha ([5]; post-emergence, Postemergence, scale 0 to 100, read-out: Plant response rating, Surinam Grass) | pest or weed control at 125 g/ha ([5]; pre-emergence, Preemergence, scale 0 to 100 (0 no effect, 100 complete control), read-out: Plant response rating, Surinam Grass) | pest or weed control at 500 g/ha ([7]; post-emergence, Postemergence, scale 0 to 100, read-out: Plant response rating, Barnyardgrass) | pest or weed control at 125 g/ha ([12]; pre-emergence, Preemergence, scale 0 to 100 (0 no effect, 100 complete control), read-out: Plant response rating, Foxtail, Giant) | pest or weed control at 500 g/ha ([14]; 500 g ai/ha, scale 0 to 100, read-out: Plant response rating, Blackgrass)
70%: plant injury at 500 g/ha ([4]; pre-emergence, Preemergence, scale 0 to 100 (0 no effect, 100 complete control), read-out: Wheat plant response rating) | pest or weed control at 500 g/ha ([6]; post-emergence, Postemergence, scale 0 to 100, read-out: Plant response rating, Cocklebur) | pest or weed control at 125 g/ha ([8]; post-emergence, Postemergence, scale 0 to 100 (0 no effect, 100 complete control), read-out: Pigweed plant response rating) | pest or weed control at 125 g/ha ([10]; post-emergence, Postemergence, scale 0 to 100 (0 no effect, 100 complete control), read-out: Lambsquarters plant response rating) | pest or weed control at 125 g/ha ([10]; pre-emergence, Preemergence, scale 0 to 100 (0 no effect, 100 complete control), read-out: Plant response rating, Lambsquarters)
